# Data as given in patent US20080207593A1, “Antihistamine Combination” (Collegium Pharmaceutical, Inc., priority 2007, published 2008).
# Counter-ions that a name gives are not always drawn.
# Assays:
# [1] = system: seasonal allergic rhinitis; settings: 4 mg three times per day (12 mg daily) for seven days; cited from earlier work
# [2] = system: seasonal allergic rhinitis nasal symptoms (rhinorrhea, nasal itching, sneezing); assay: Proof of concept clinical study: Total Nasal Symptom Score (TNSS); assay type: in vivo, human; settings: TNSS > 4.7 subgroup
# Method: An open-label, placebo-controlled parallel-group comparison study was conducted. The protocol used was a 1 week run-in period, with daily placebo (PLC) for all groups, and a second 2 week period for treatment. Study participants were randomized to receive at bedtime (10 pm) during the treatment period, one of the following: PLC only; Immediate Release LOR 10 mg, or Immediate Release CHL 4 mg/Immediate Release LOR 10 mg. Commercially available IR tablets of CHL and LOR were packaged into capsules and used in this study. Participants filled out patient diaries in the morning (8 am) and evening (10 pm, prior to dosing). Reflective and Instantaneous TNSSs were recorded daily. Pittsburgh Sleep Quality Index (PSQI) was scored at the end of the study.
# Each symptom (rhinorrhea, nasal itching, sneezing) was scored on the following scale (Max Score=9):
# 0=absent symptoms (no sign/symptom evident);
# 1=mild symptoms (signs or symptoms clearly present but with minimal awareness, and easily tolerated);
# 2=moderate symptoms (definite awareness of signs or symptoms that are bothersome but tolerable); or
# 3=Severe symptoms (signs or symptoms that are hard to tolerate and cause interference with activities of daily living and/or sleeping).
# At each time point (at 8 AM and 10 PM), symptoms were scored for Instantaneous and Reflective scores.
# Inclusion criteria: male/female 18-60 years, history of seasonal allergic rhinitis for at least two years, sensitivity to ragweed or locally prevalent allergen, immunotherapy at stable dose, AM Reflective TNSS=3 on at least 5 out of 7 consecutive days during run-in.
# Exclusion criteria: subjects with asthma other than mild intermittent asthma, use of antihistamines, other than study medication; use of systemic or topical corticosteroids, use of decongestants or antihistamines within 3 days of Visit 1, nasal cromolyn within 2 weeks of Visit 1, nasal or systemic corticosteroids within 28 days of Visit 1, loratadine within 10 days of Visit 1, history of sleep abnormalities, sinusitis, use of medications causing drowsiness/interfere with sleep, subjects with a known history of alcohol or drug abuse, and other standard exclusions.
# 2.3 Study Sites. The Study was conducted in Newport News, Va. (20 subjects), Richmond, Va. (20 subjects), New Braunfels, Tex. (25 subjects), San Antonio, Tex. (9 subjects).
# allergic rhinitis = settings: cited from earlier work
# [3] = system: seasonal allergic rhinitis; settings: cited from earlier work
# [4] = Baseline (1 week placebo run-in)
# [5] = Change from Baseline to End-of-Treatment
# [6] = End-of-Treatment, bedtime dosing
structure (smiles),measurement,setting,value
"CN(C)CCC(c1ccc(Cl)cc1)c1ccccn1 (stereo not drawn) [chlorpheniramine, Chlorpheniramine maleate]",patients reporting moderate or complete relief,[1],60%
same,patients reporting sedation,[1],19%
CCOC(=O)N1CCC(=C2c3ccc(Cl)cc3CCc3cccnc32)CC1 [Loratadine],"AM TNSS Instantaneous Score, Max",[2]; [4],7.71
same,"AM TNSS Instantaneous Score, Mean",[2]; [4],5.58
same,"AM TNSS Instantaneous Score, Median",[2]; [4],5.43
same,"AM TNSS Instantaneous Score, Min",[2]; [4],3.71
same,"AM TNSS Reflective Score, Max",[2]; [4],8.14
same,"AM TNSS Reflective Score, Mean",[2]; [4],5.91
same,"AM TNSS Reflective Score, Median",[2]; [4],5.07
same,"AM TNSS Reflective Score, Min",[2]; [4],5.00
same,"PM TNSS Instantaneous Score, Max",[2]; [4],8.83
same,"PM TNSS Instantaneous Score, Mean",[2]; [4],5.70
same,"PM TNSS Instantaneous Score, Median",[2]; [4],5.21
same,"PM TNSS Instantaneous Score, Min",[2]; [4],3.86
same,"PM TNSS Reflective Score, Max",[2]; [4],8.50
same,"PM TNSS Reflective Score, Mean",[2]; [4],6.10
same,"PM TNSS Reflective Score, Median",[2]; [4],5.59
same,"PM TNSS Reflective Score, Min",[2]; [4],4.57
same,"PM TNSS Reflective Score, Change, Max",[2]; [5],1.21
same,"PM TNSS Reflective Score, Change, Mean",[2]; [5],−0.92
same,"PM TNSS Reflective Score, Change, Median",[2]; [5],−0.21
same,"PM TNSS Reflective Score, Change, Min",[2]; [5],−3.45
same,"AM TNSS Instantaneous Score, Change, Max",[2]; Change from Baseline to Week 2,1.21
same,"AM TNSS Instantaneous Score, Change, Mean",[2]; Change from Baseline to Week 2,−0.74
same,"AM TNSS Instantaneous Score, Change, Median",[2]; Change from Baseline to Week 2,−0.83
same,"AM TNSS Instantaneous Score, Change, Min",[2]; Change from Baseline to Week 2,−2.62
same,"AM TNSS Reflective Score, Change, Max",[2]; Change from Baseline to Week 2,1.29
same,"AM TNSS Reflective Score, Change, Mean",[2]; Change from Baseline to Week 2,−0.82
same,"AM TNSS Reflective Score, Change, Median",[2]; Change from Baseline to Week 2,−0.52
same,"AM TNSS Reflective Score, Change, Min",[2]; Change from Baseline to Week 2,−2.79
same,"PM TNSS Instantaneous Score, Change, Max",[2]; Change from Baseline to Week 2,1.00
same,"PM TNSS Instantaneous Score, Change, Mean",[2]; Change from Baseline to Week 2,−0.81
same,"PM TNSS Instantaneous Score, Change, Median",[2]; Change from Baseline to Week 2,−0.21
same,"PM TNSS Instantaneous Score, Change, Min",[2]; Change from Baseline to Week 2,−3.45
same,"PM TNSS Reflective Score, Max",[2]; [6],7.71
same,"PM TNSS Reflective Score, Mean",[2]; [6],5.18
same,"PM TNSS Reflective Score, Median",[2]; [6],5.29
same,"PM TNSS Reflective Score, Min",[2]; [6],2.14
same,"AM TNSS Instantaneous Score, Max","[2]; Week 2, bedtime dosing",7.36
same,"AM TNSS Instantaneous Score, Mean","[2]; Week 2, bedtime dosing",4.83
same,"AM TNSS Instantaneous Score, Median","[2]; Week 2, bedtime dosing",5.16
same,"AM TNSS Instantaneous Score, Min","[2]; Week 2, bedtime dosing",2.14
same,"AM TNSS Reflective Score, Max","[2]; Week 2, bedtime dosing",7.43
same,"AM TNSS Reflective Score, Mean","[2]; Week 2, bedtime dosing",5.08
same,"AM TNSS Reflective Score, Median","[2]; Week 2, bedtime dosing",5.13
same,"AM TNSS Reflective Score, Min","[2]; Week 2, bedtime dosing",2.21
same,"PM TNSS Instantaneous Score, Max","[2]; Week 2, bedtime dosing",7.21
same,"PM TNSS Instantaneous Score, Mean","[2]; Week 2, bedtime dosing",4.89
same,"PM TNSS Instantaneous Score, Median","[2]; Week 2, bedtime dosing",5.32
same,"PM TNSS Instantaneous Score, Min","[2]; Week 2, bedtime dosing",2.15
same,24 hour efficacy,allergic rhinitis; 10 mg once a day,lack of 24 hour efficacy
same,patients with significant sedation,allergic rhinitis; loratadine 40 mg once daily,34.3%
same,nocturnal symptoms,[3]; 10 mg QD for four weeks,did not show any improvement
same,symptom scores,"[3]; 10 mg QD, first two week period and four week study overall",statistically significant reduction
